According to ChEMBL document CHEMBL1201862, “PubChem BioAssay data set” (2004):
Calls of active or inactive are those of the source.

How the values were obtained:
[1] = tested on: Streptococcus sp. 'group A'; experiment: Streptococcus pyogenes SK(-)GAS viability under kanamycin – luminescence, BacTiterGlo, confirmation, counter-screen for streptokinase expression inhibitor project, dose response (AID 1900); assay type: functional, organism-based
[2] = biological target: T1, Streptokinase A (Streptococcus pyogenes serotype M1, UniProt P10520); experiment: viability-normalized secreted streptokinase activity reduction – plasminogen activation absorbance, OD405, dose response (AID 1914); assay type: functional, Streptococcus pyogenes M1 GAS;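 note: secreted streptokinase activity via plasminogen activation per viability signal from cell pellet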
T1 sequence (P10520 whole entry): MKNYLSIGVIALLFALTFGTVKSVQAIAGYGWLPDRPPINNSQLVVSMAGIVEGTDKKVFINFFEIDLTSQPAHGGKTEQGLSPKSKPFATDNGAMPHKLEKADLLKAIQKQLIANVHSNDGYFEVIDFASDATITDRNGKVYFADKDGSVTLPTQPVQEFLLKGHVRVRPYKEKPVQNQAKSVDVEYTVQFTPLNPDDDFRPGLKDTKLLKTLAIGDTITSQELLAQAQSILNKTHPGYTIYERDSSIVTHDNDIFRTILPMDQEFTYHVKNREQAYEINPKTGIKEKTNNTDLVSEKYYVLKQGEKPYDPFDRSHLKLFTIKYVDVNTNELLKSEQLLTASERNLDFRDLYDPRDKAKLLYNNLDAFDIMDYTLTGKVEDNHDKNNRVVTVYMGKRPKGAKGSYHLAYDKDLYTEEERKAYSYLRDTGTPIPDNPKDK

[3] = tested on: Streptococcus; experiment: GAS UMAA2166 growth inhibition – luminescence, BacTiterGlo, counter-screen for streptokinase expression inhibitor project, dose response (AID 1915); assay type: functional, organism-based;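 note: potency for reduction of bacterial viability or growth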
[4] = biological target: T2, Ubiquitin-conjugating enzyme E2 N (Homo sapiens, UniProt P61088); assay type: functional
T2 sequence (P61088 whole entry): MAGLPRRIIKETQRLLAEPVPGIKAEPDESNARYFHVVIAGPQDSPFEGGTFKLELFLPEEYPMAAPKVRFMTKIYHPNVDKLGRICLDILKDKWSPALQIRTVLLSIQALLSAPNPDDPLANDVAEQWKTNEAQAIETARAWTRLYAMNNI

[5] = biological target: T2, Ubiquitin-conjugating enzyme E2 N; assay type: functional; remark: listed apart in the source
[6] = biological target: T3, Apoptotic protease-activating factor 1 (Homo sapiens, UniProt O14727); assay type: functional
T3 sequence (O14727 whole entry): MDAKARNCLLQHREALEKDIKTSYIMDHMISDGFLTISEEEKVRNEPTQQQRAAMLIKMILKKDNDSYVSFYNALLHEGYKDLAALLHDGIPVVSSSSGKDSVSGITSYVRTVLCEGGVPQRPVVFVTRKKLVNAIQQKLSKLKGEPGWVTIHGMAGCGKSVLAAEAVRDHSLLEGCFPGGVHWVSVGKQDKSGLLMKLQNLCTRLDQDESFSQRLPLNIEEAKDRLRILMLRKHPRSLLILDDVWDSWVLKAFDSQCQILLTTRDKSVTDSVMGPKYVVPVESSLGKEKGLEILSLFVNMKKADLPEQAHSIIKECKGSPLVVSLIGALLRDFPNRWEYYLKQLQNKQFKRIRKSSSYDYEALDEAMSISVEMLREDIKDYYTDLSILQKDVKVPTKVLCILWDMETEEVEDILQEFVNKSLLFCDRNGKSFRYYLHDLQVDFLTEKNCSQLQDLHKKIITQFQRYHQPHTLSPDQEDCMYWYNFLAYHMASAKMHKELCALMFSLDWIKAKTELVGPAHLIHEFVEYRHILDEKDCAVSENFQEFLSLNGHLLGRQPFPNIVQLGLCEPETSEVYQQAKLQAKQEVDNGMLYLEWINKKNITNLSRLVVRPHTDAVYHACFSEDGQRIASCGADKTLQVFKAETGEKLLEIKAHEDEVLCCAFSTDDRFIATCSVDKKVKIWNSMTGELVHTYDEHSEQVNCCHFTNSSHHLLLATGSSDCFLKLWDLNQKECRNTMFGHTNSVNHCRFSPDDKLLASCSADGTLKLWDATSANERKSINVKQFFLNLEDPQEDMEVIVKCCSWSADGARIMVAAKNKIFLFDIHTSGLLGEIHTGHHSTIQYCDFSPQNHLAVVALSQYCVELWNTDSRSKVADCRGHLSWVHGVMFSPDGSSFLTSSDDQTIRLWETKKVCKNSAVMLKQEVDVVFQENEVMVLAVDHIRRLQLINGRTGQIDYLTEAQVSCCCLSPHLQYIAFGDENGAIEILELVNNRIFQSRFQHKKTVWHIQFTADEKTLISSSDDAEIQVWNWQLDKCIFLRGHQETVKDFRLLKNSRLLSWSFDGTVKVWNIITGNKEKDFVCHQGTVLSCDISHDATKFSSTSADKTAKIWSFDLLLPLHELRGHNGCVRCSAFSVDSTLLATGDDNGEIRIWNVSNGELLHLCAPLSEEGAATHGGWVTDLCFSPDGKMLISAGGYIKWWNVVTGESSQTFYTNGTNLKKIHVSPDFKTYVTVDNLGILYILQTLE

[7] = biological target: T4, DNA repair protein RAD52 homolog (Homo sapiens, UniProt P43351); assay type: functional, biochemical
T4 sequence (P43351 whole entry): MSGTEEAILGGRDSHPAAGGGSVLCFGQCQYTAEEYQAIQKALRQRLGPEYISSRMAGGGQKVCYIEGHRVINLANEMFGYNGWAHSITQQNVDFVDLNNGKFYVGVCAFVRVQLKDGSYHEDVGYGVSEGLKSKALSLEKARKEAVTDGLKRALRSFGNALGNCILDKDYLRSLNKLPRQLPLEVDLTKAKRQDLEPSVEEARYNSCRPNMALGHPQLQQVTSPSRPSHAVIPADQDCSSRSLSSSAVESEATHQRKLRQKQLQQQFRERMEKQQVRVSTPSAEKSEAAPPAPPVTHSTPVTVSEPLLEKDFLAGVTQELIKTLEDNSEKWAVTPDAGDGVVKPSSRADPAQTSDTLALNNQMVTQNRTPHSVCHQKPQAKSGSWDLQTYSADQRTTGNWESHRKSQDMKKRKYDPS

[8] = biological target: CAAX prenyl protease 1 (Saccharomyces cerevisiae S288c, UniProt P47154); experiment: yeast CAAX protease Ste24 inhibition – biochemical, S. cerevisiae, plate reader, cherry-pick, dose response (AID 488815)
[9] = biological target: Heat shock protein HSP 90-alpha (Homo sapiens, UniProt P07900); assay type: functional, organism-based
[10] = tested on: INS1; experiment: INS-1E survival protection against cytokine death – cell-based, luminescence, retest, dose response (AID 449756); assay type: functional; settings: Rattus norvegicus;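 note: cell death triggered by IL-1 beta plus TNF-alpha plus IFN-gamma mixture; protective hits raise ATP signal compared with cytokine alone wells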
[11] = biological target: Melanocortin receptor 4 (Homo sapiens, UniProt P32245); experiment: inhibitors of MC4R cAMP signaling – cell-based, TR-FRET, biased antagonists, dose response (AID 602298); assay type: functional;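 note: antagonist potency against agonist-stimulated cAMP production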
[12] = biological target: Nucleotide-binding oligomerization domain-containing protein 2 (Homo sapiens, UniProt Q9HC29); experiment: inhibition of NOD2-driven NF-kB reporter – cell-based, luminescence, uHTS, HEK293 (AID 1566); assay type: functional
[13] = tested on: HEK293; experiment: NOD2 signaling inhibitors in MDP-stimulated cells, cell-based, uHTS, luminescence (AID 2001); assay type: functional; settings: Homo sapiens

Sequence of Nucleotide-binding oligomerization domain-containing protein 2 (Q9HC29 whole entry, the tested form may be a part): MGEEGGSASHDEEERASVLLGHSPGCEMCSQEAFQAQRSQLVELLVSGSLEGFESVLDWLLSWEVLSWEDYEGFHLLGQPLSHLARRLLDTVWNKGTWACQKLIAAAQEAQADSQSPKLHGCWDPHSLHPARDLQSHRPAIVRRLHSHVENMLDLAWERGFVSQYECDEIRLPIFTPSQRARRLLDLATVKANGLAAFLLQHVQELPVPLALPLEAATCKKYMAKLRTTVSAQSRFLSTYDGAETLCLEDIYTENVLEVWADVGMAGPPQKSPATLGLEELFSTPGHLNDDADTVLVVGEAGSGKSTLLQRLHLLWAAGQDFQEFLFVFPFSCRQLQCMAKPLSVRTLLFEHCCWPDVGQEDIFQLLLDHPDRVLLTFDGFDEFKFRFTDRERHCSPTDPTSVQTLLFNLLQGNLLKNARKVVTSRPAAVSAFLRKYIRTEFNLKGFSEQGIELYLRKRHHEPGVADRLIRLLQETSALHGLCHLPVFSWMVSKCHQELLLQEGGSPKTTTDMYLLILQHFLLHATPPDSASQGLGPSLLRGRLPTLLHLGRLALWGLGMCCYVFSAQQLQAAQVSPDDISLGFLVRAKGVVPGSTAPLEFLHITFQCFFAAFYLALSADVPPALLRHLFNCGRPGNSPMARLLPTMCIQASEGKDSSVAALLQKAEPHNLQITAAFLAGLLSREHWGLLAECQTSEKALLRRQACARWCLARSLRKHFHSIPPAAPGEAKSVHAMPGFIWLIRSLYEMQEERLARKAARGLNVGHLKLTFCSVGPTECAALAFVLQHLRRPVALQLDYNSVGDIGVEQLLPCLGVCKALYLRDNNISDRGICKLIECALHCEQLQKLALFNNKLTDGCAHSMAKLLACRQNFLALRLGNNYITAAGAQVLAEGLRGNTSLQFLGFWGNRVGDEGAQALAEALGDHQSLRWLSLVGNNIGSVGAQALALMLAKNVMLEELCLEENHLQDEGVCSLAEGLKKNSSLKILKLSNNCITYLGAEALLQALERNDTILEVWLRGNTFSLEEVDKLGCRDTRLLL
Sequence of Melanocortin receptor 4 (P32245 whole entry, the tested form may be a part): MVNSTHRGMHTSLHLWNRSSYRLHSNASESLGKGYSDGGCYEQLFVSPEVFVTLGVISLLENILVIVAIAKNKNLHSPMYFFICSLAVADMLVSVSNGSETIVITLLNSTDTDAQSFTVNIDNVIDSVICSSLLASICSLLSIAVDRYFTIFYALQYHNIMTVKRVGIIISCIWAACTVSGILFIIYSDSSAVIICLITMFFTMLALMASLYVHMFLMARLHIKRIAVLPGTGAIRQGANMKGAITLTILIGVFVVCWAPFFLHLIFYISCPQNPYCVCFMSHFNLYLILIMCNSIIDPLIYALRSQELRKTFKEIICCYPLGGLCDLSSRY
Sequence of CAAX prenyl protease 1 (P47154 whole entry): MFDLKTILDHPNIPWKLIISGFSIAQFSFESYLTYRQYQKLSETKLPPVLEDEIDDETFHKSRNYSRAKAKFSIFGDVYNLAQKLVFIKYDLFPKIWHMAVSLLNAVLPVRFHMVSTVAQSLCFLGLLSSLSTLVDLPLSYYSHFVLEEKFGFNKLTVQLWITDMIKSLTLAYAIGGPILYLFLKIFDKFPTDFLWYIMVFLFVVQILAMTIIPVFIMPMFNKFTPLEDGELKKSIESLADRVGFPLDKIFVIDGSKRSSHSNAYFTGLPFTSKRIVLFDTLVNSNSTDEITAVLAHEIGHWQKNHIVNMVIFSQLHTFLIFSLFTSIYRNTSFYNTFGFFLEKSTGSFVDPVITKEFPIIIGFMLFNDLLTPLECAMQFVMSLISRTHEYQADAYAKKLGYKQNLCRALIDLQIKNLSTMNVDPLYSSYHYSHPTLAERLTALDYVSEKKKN

Structure (SMILES)	EC50 [1]	EC50 [2]	EC50 [3]	IC50 [4]	IC50 [5]	IC50 [6]	AC50 [7]	AC50 [8]	AC50 [9]	AC50 [10]	IC50 [11]	EC50 [12]	IC50 [13]
COc1cc(/C=C/c2cc[n+](C)cc2)ccc1OCC(=O)Nc1ccc(Cl)c(Cl)c1	12.7 µM (active)	> 150 µM (not active)	12.9 µM (active)	7.13 µM (active)	7.74 µM (active)	22.6 µM (active)	8.27 µM (active)	–	–	–	–	–	–
CCCCCCCCCC[N+](C)(C)CC/C=C1/c2ccccc2Sc2ccc(Cl)cc21	1.75 µM (active)	6.63 µM (active)	5.62 µM (active)	4.61 µM (active)	3.77 µM (active)	10.6 µM (active)	–	6.47 µM (active)	8.12 µM (active)	5.67 µM (active)	31.2 µM (inactive)	–	–
O=C(NCCc1ccccc1)C(c1cccs1)N(C(=O)CCl)c1ccc(Cl)cc1 (centres undefined)	–	–	–	–	–	–	–	–	–	–	–	> 20 µM (inactive)	5.36 µM (active)
